In PubChem BioAssay AID1963828 (Molecular Pharmacology Branch, DTP, NCI, 2024):

Test system: 991263-137-R1-J2-PDC complex spheroid viability
Test: Anticancer human tumor 991263-137-R1-J2-PDC patient-derived colon adenocarcinoma cell line growth inhibition [POLQ]
Conditions: for IC50: curve of first compound; for viability, T/C: stronger effect = lower value
Experimental: Multicellular complex tumor spheroid response to Polymerase (POL) inhibitors (novobiocin, ART-558, RP6685) in combination with a variety of drugs and investigational agents in selected tumor cell lines
The POL inhibitors (novobiocin, ART-558, and RP6685) were evaluated both individually and in combination with standard of care and investigational anticancer small molecules within a complex spheroid model of solid tumors. . Complex spheroids include a stromal component modeled by human endothelial cells (HUVEC) and fibroblasts modeled by human mesenchymal stem cells (MSCs). The concentration ranges selected for each drug and investigational agent were based upon clinically achievable concentrations if the clinical Cmax of the agent was known.
Compounds. The drugs and investigational agents: novobiocin (NSC847541), ART-558 (NSC835418), RP-6685 (NSC848927), peposertib (NSC802822), ceralasertib (NSC780249), elimusertib (NSC800525), camonsertib (NSC841442), AZD-1390 (NSC803789), olaparib (NSC753686), talazoparib (NSC767125), rucaparib (NSC756644), sotorasib (NSC818433), MRTX-1133 (NSC836407), SN-38 (NSC673596), topotecan (NSC609699), epotoside (NSC141540), doxorubicin (NSC123127), gemcitabine (NSC613327), 5-fluorouracil (NSC19893), paclitaxel (NSC125973), vemurafenib (NSC761431), MSA-2 (NSC828583), SN-011 (NSC837082), adavosertib (NSC754352), prexasertib (NSC758257), carboplatin (NSC241240) and oxaliplatin (NSC266046), were obtained from the National Cancer Institute (NCI) Developmental Therapeutics Program Chemical Repository (21). The FDA-approved anticancer drug set is available from the Developmental Therapeutics Program at https://dtp.cancer.gov/organization/dscb/obtaining/. […] The stock solutions were prepared in dimethyl sulfoxide (DMSO, Sigma-Aldrich, St. Louis, MO, cat. D2650), except for the platinum compounds which were prepared in saline (Quality Biological, Gaithersburg, MD, cat. 114-055-101), at 800-fold the tested concentration and stored at -70 degrees C prior to their use. All drugs and investigational agents were tested over a range starting from a high concentration at or near the clinical Cmax and decreasing in half-log increments. If the clinical Cmax for an agent had not been determined, the highest concentration tested was 10 microM, except for SN-38, which was tested at a high concentration of 1 microM.
Cell Culture. All cells were maintained in an incubator at 37 degrees C and 5% CO2 with 95% humidity. The PDC lines were cultured according to standard operating procedures established by the NCI PDMR (https://pdmr.cancer.gov). Table 3 of the manuscript, lists the cell lines along with the number of the three cell types plated to form the mct-spheroids and media for tumor cell growth. After thawing, all PDC lines, except 997537-175-T-J1-PDC and 415267-285-R-J2-PDC, were cultured in Matrigel-coated flasks prepared with a working solution of 1X Ham's F-12 nutrient mix, without supplementation (Thermo Fisher Scientific, cat. 11765054), 100 U/mL penicillin-streptomycin (Thermo Fisher Scientific, cat. 15140122), and 2.5% Matrigel (Corning Inc., Corning, NY, cat. 354248) for the first three passages. The two PDC lines 997537-175-T-J1-PDC and 415267-285-R-J2-PDC were cultured on uncoated flasks. The 857933-349-R-J2-PDC line was cultured in 6C/Colon 1B media containing advanced DMEM/F-12 (Thermo Fisher Scientific, cat. 12634028), 10 mM HEPES (Thermo Fisher Scientific, cat. 15630080), 1X GlutaMAX supplement (Thermo Fisher Scientific, cat. 35050061), 0.1 mg/mL primocin (InvivoGen, San Diego, CA, cat. ant-pm-2), 10% defined fetal bovine serum, heat inactivated (HyClone Laboratories Inc., Logan, UT, cat. SH30070.03HI), 50% L-WRN conditioned media (ATCC, cat. CRL-3276), 1.25 mM N-Acetyl-L-cysteine (Sigma-Aldrich, cat. A9165), 10 mM nicotinamide (Sigma-Aldrich, cat. N0636), 1X B-27 supplement (Thermo Fisher Scientific, cat. 17504044), 1X N-2 supplement (Thermo Fisher Scientific, cat. […]

[1] = second compound 0.0316 µM, first compound 0.0316 µM
[2] = second compound 0.0316 µM, first compound 0.1 µM
[3] = second compound 0.0316 µM, first compound 0.316 µM
[4] = second compound 0.0316 µM, first compound 1 µM
[5] = second compound 0.1 µM, first compound 0.0316 µM
[6] = second compound 0.1 µM, first compound 0.1 µM
[7] = second compound 0.1 µM, first compound 0.316 µM
[8] = second compound 0.1 µM, first compound 1 µM
[9] = second compound 0.316 µM, first compound 0.0316 µM
[10] = second compound 0.316 µM, first compound 0.1 µM
[11] = second compound 0.316 µM, first compound 0.316 µM
[12] = second compound 0.316 µM, first compound 1 µM
[13] = second compound 1 µM, first compound 0.0316 µM
[14] = second compound 1 µM, first compound 0.1 µM
[15] = second compound 1 µM, first compound 0.316 µM
[16] = second compound 1 µM, first compound 1 µM
[17] = second compound 3.16 µM, first compound 0.0316 µM
[18] = second compound 3.16 µM, first compound 0.1 µM
[19] = second compound 3.16 µM, first compound 0.316 µM
[20] = second compound 3.16 µM, first compound 1 µM
[21] = second compound 10 µM, first compound 0.0316 µM
[22] = second compound 10 µM, first compound 0.1 µM
[23] = second compound 10 µM, first compound 0.316 µM
[24] = second compound 10 µM, first compound 1 µM
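Further: spheroids exposed to compounds for 7 days before readout.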
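Wherever viability, T/C is given: 100% = DMSO vehicle control viability.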

SMILES: Nc1ccn(C2OC(CO)C(O)C2(F)F)c(=O)n1 (centres undefined) + COC1C(OC(N)=O)C(O)C(Oc2ccc3c(O)c(NC(=O)c4ccc(O)c(CC=C(C)C)c4)c(=O)oc3c2C)OC1(C)C
- IC50 (second compound 0.0316 µM): 553 nM
- IC50 (second compound 0.1 µM): 898 nM
- IC50 (second compound 0.316 µM): 1920 nM
- IC50 (second compound 1 µM): 860 nM
- IC50 (second compound 3.16 µM): 736 nM
- IC50 (second compound 10 µM): 1110 nM
- viability, T/C [1]: 77.8%
- viability, T/C [2]: 56%
- viability, T/C [3]: 56.4%
- viability, T/C [4]: 46.9%
- viability, T/C (second compound 0.0316 µM, first compound 3.16 µM): 47.6%
- viability, T/C (second compound 0.0316 µM, first compound 10 µM): 36.6%
- viability, T/C [5]: 67.6%
- viability, T/C [6]: 60.5%
- viability, T/C [7]: 57.5%
- viability, T/C [8]: 46.7%
- viability, T/C (second compound 0.1 µM, first compound 3.16 µM): 45.5%
- viability, T/C (second compound 0.1 µM, first compound 10 µM): 42%
- viability, T/C [9]: 65.1%
- viability, T/C [10]: 70.8%
- viability, T/C [11]: 62%
- viability, T/C [12]: 54.1%
- viability, T/C (second compound 0.316 µM, first compound 3.16 µM): 46.9%
- viability, T/C (second compound 0.316 µM, first compound 10 µM): 33%
- viability, T/C [13]: 72.8%
- viability, T/C [14]: 69.9%
- viability, T/C [15]: 53.7%
- viability, T/C [16]: 48.5%
- viability, T/C (second compound 1 µM, first compound 3.16 µM): 43.4%
- viability, T/C (second compound 1 µM, first compound 10 µM): 35.5%
- viability, T/C [17]: 72.1%
- viability, T/C [18]: 63.5%
- viability, T/C [19]: 58%
- viability, T/C [20]: 48%
- viability, T/C (second compound 3.16 µM, first compound 3.16 µM): 39.1%
- viability, T/C (second compound 3.16 µM, first compound 10 µM): 37.9%
- viability, T/C [21]: 69.4%
- viability, T/C [22]: 75.7%
- viability, T/C [23]: 59.7%
- viability, T/C [24]: 53.3%
- viability, T/C (second compound 10 µM, first compound 3.16 µM): 38.2%
- viability, T/C (second compound 10 µM, first compound 10 µM): 34.2%

SMILES: COc1cccc(OCCCN)c1-c1cc(Nc2cnc(C#N)cn2)n[nH]1 + Cc1cccc(N(C)C(=O)C2C(O)CCN2c2nc(C)cc(C(F)(F)F)c2C#N)c1
- IC50 (second compound 0.0316 µM): 677 nM
- IC50 (second compound 0.1 µM): 730 nM
- IC50 (second compound 0.316 µM): 879 nM
- IC50 (second compound 1 µM): 994 nM
- IC50 (second compound 3.16 µM): 833 nM
- IC50 (second compound 10 µM): 624 nM
- viability, T/C (second compound 0.0316 µM, first compound 0.00316 µM): 113%
- viability, T/C (second compound 0.0316 µM, first compound 0.01 µM): 104%
- viability, T/C [1]: 90.1%
- viability, T/C [2]: 85.2%
- viability, T/C [3]: 61.2%
- viability, T/C [4]: 42.8%
- viability, T/C (second compound 0.1 µM, first compound 0.00316 µM): 111%
- viability, T/C (second compound 0.1 µM, first compound 0.01 µM): 95.8%
- viability, T/C [5]: 104%
- viability, T/C [6]: 88.2%
- viability, T/C [7]: 62.2%
- viability, T/C [8]: 45.4%
- viability, T/C (second compound 0.316 µM, first compound 0.00316 µM): 105%
- viability, T/C (second compound 0.316 µM, first compound 0.01 µM): 99.6%
- viability, T/C [9]: 91.5%
- viability, T/C [10]: 94%
- viability, T/C [11]: 71.4%
- viability, T/C [12]: 47%
- viability, T/C (second compound 1 µM, first compound 0.00316 µM): 96.2%
- viability, T/C (second compound 1 µM, first compound 0.01 µM): 101%
- viability, T/C [13]: 96.7%
- viability, T/C [14]: 83%
- viability, T/C [15]: 76.7%
- viability, T/C [16]: 49.1%
- viability, T/C (second compound 3.16 µM, first compound 0.00316 µM): 110%
- viability, T/C (second compound 3.16 µM, first compound 0.01 µM): 108%
- viability, T/C [17]: 89.3%
- viability, T/C [18]: 94.8%
- viability, T/C [19]: 79.9%
- viability, T/C [20]: 43.4%
- viability, T/C (second compound 10 µM, first compound 0.00316 µM): 93.7%
- viability, T/C (second compound 10 µM, first compound 0.01 µM): 96.4%
- viability, T/C [21]: 91.6%
- viability, T/C [22]: 76.1%
- viability, T/C [23]: 55%
- viability, T/C [24]: 46.5%
